Measurements: EP0403172A2, “Purified enzyme and process therefor” (OKLAHOMA STATE UNIVERSITY, priority 1989, dated 1990)
Like-named read-outs stand apart in the source and are kept apart here.

Columns and labels:
Assay type in all cases: biochemical
[1] = target: T1, isopenicillin N epimerase (Streptomyces clavuligerus, UniProt P18549); assay: Epimerase activity assay (product formation from isopenicillin N / penicillin N, quantitated by HPLC after o-phthaldialdehyde derivatization)
T1 construct: Approximately 250 g of frozen whole cells of S. clavuligerus were thawed and homogenated; made in house; host or cells: Streptomyces clavuligerus NRRL 18491 (native producer; the endogenous enzyme was purified from cell-free extract, not made recombinantly)
T1 sequence (P18549 1-398): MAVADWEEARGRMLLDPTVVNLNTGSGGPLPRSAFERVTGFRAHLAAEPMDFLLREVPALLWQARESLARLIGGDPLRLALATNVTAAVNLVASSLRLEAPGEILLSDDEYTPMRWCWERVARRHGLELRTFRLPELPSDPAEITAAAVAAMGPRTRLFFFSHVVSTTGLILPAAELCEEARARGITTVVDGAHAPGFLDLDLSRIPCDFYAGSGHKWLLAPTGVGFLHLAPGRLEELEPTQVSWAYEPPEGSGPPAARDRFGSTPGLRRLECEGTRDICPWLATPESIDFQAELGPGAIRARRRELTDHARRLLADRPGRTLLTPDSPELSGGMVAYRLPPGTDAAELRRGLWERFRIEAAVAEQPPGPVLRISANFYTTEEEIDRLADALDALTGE
Method: The epimerase activity was determined by the product formation using isopenicillin N and penicillin N as substrates. Formation of isopenicillin N and penicillin N was quantitated by HPLC. […] The reaction mixture was incubated at 37°C for 20 min. The reaction was terminated by placing the reaction vessel in boiling water for 10 min, immediately cooling the reaction mixture with ice, and then filtering the cold mixture through a 0.45 µm filter.
The derivatives were then analyzed by HPLC. The assay samples were prepared for HPLC as follows. The assay filtrate, obtained as described above, 20 µl was mixed with 5 µl of a derivatizing reagent consisting of 4 mg of o-phthaldialdehyde dissolved in 300 µl of methanol, 250 µl of 0.4 M sodium borate, pH 9.4, 390 µl of water and 60 µl of 1 M N-acetyl-L-cysteine, adjusted to pH 5-6 with sodium hydroxide. After a 2 min reaction time, 200 µl of 50 mM sodium acetate, pH 5.0, were added to the mixture and 50 µl aliquots were used for HPLC analysis.

[2] = target: T1, isopenicillin N epimerase; assay: Conversion to apoenzyme with hydroxylamine / reduction with sodium borohydride, then activity
Method: PLP bound to the epimerase was measured by the known phenylhydrazine method and an average value of one mole of PLP per 47,000 g of enzyme was obtained. The haloenzyme was converted to the apoenzyme by incubation at 0°C for 60 min with 10 mM potassium phosphate, pH 7.0, containing 10 mM hydroxylamine followed by gel filtration. The hydroxylamine treated epimerase expressed no activity in the absence of exogenous PLP and the absorption maximum at 420 nm disappeared (FIG. 1, curve 2). The epimerase activity was restored by the addition of PLP to the apoenzyme. The apparent Michelis constant for PLP was determined to be 2.4 µM.
The absorption spectra shown in FIG. 1 of the drawings were obtained as follows. The epimerase (haloenzyme), curve 1, was treated with 10 mM hydroxylamine (apoenzyme), curve 2, or was reduced with 1 mM sodium borohydride, curve 3. After removal of hydroxylamine or sodium borohydride by gel filtration, absorption spectra were run in 10 mM potassium phosphate, pH 7.0, at the enzyme concentration of 0.57 mg/ml with an Aminco DW-2000 spectrophotometer.

[3] = target: T1, isopenicillin N epimerase; assay: Fluorescamine titration of hydroxylamine-treated epimerase with activity assay of aliquots; settings: fluorescamine/epimerase ratio of 35 mole/mole
Method: Fluorescamine reacts with primary amino groups, such as the α-amino group of the N-terminal amino residue and the ε-amino groups of lysine in the enzyme to form fluorescent products with maximum excitation and emission wavelength of 390 nm and 475 nm, respectively.
The emission fluorescence of fluorescamine treated epimerase shown in FIG. 2 of the drawings was obtained as follows. The epimerase (0.5 mg/ml) was incubated in 10 mM potassium phosphate, pH 7.0, containing 10 mM hydroxylamine at 0°C for 60 min. After removal of hydroxylamine by gel filtration, the treated enzyme (0.16 mg/ml) in 10 mM potassium phosphate, pH 7.0, was titrated with the indicated amounts of fluorescamine (50 mM) dissolved in dry acetone at 25°C. The sample was excited at 390 nm and the emission fluorescence was followed at 475 nm. […] Simultaneously, aliquots of the enzyme solution were withdrawn and activity for isopenicillin N was assayed. The assay results (% activity) are shown on the curve labeled "●" in FIG. 2.

[4] = compound as epimerase substrate at 1.4 mM, Isopenicillin N = 100, read-out: Relative Activity (%)
[5] = compound as epimerase substrate at 1.4 mM, Isopenicillin N = 100

## NC(=O)CI [Iodoacetamide]
[1]; compound at 1.0 mM
  inhibition at 1000 µM: 28%

## CCN1C(=O)C=CC1=O [N-Ethylmaleimide]
[1]; compound at 0.1 mM
  inhibition at 100 µM: 26%
[1]; compound at 1.0 mM
  inhibition at 1000 µM: 45%

## CC1=C(C(=O)O)N2C(=O)[C@@H](NC(=O)CCC[C@@H](N)C(=O)O)[C@H]2SC1 [DAOC, Deacetoxycephalosporin C (3-cephem)]
[1]; [4]
  Activity: < 1%

## NO [Hydroxylamine]
[1]; compound at 0.1 mM
  Inhibition (%): 80%
[1]; compound at 1.0 mM
  Inhibition (%): 95%
[2]; 10 mM hydroxylamine, 0°C, 60 min, gel filtration, absence of exogenous PLP
  epimerase activity after treatment: no activity

## O=C1OC2(OC=C(c3ccccc3)C2=O)c2ccccc21 (stereo not shown) [fluorescamine]
[3]
  epimerase activity remaining: about 80%

## N[C@@H]1CONC1=O [D-Cycloserine]
[1]; compound at 1.0 mM
  inhibition at 1000 µM: 23%

## N[C@@H](CCCC(=O)O)C(=O)O [L-Amino adipic acid]
[1]; [4]
  Activity: 0%

## CC(C)[C@@H](NC(=O)[C@H](CS)NC(=O)CCC[C@H](N)C(=O)O)C(=O)O [ACV, δ-(L-α-aminoadipoyl)-L-cysteinyl-D-valine]
[1]; [4]
  Activity: 0%

## NNC(=O)c1ccncc1 [Isoniazid]
[1]; compound at 1.0 mM
  inhibition at 1000 µM: 23%

## N[C@H](CCCC(=O)N[C@@H]1C(=O)N2C(C(=O)O)=C(CO)CS[C@H]12)C(=O)O [DAC, Deacetylcephalosporin C]
[1]; [5]
  Relative Activity (%): 0%

## O[C@H](CS)[C@H](O)CS (racemic) [Dithiothreitol]
[1]
  effect on activity of epimerase: partially stimulated
[1]; sulfhydryl compound at 0.2 mM
  Activity: 290 µmol/min/mL
[1]; sulfhydryl compound at 0.5 mM
  Activity: 300 µmol/min/mL

## CC1(C)S[C@@H]2[C@H](NC(=O)CCC[C@H](N)C(=O)O)C(=O)N2[C@H]1C(=O)O [Isopenicillin N]
[1]; [4]
  Activity: 100%

## O=S(=O)([O-])[O-].[Fe+2] [FeSO4]
[1]; Table 4, compound at 0.1 mM
  Activity: 150 µmol/min/mL

## Cc1ncc(COP(=O)(O)O)c(C=O)c1O [PLP, pyridoxal-5′-phosphate]
[1]; PLP added to the apoenzyme (hydroxylamine treated)
  apparent Michelis constant for PLP: 2.4 µM

## Cc1cc2nc3c(=O)[nH]c(=O)nc-3n(C[C@H](O)[C@H](O)[C@H](O)COP(=O)(O)OP(=O)(O)OC[C@H]3O[C@@H](n4cnc5c(N)ncnc54)[C@H](O)[C@@H]3O)c2cc1C [FAD, Flavin-Adenine Dinucleotide]
[1]; Table 4, compound at 0.5 mM
  Activity: 42 µmol/min/mL
[1]; compound at 0.5 mM
  inhibition at 500 µM: 80%

## CC1=CSC2C(NC(=O)CCCC(N)C(=O)O)C(=O)N2C1C(=O)O (stereo not shown) [IsoDAOC, Isodeacetoxycephalosporin C (2-cephem)]
[1]; [5]
  Relative Activity (%): 0%

## CC1(C)S[C@@H]2[C@H](NC(=O)CCC[C@@H](N)C(=O)O)C(=O)N2[C@H]1C(=O)O [Penicillin N]
[1]; [4]
  Activity: 204%

## OCCS [β-mercaptoethanol]
[1]
  effect on activity of epimerase: partially stimulated
[1]; sulfhydryl compound at 0.2 mM
  Activity: 275 µmol/min/mL
[1]; sulfhydryl compound at 0.5 mM
  Activity: 281 µmol/min/mL

## CC(C)NNC(=O)c1ccncc1 [Iproniazid]
[1]; compound at 1.0 mM
  inhibition at 1000 µM: 25%

## Nc1ncnc2c1ncn2[C@@H]1O[C@H](COP(=O)(O)OP(=O)(O)OP(=O)(O)O)[C@@H](O)[C@H]1O [ATP, Adenosine Triphosphate]
[1]; Table 4, compound at 1 mM
  Activity: 208 µmol/min/mL

## CC(=O)N[C@@H](CS)C(=O)O [N-acetyl-L-cysteine]
[1]; sulfhydryl compound at 0.2 mM
  Activity: 224 µmol/min/mL
[1]; sulfhydryl compound at 0.5 mM
  Activity: 190 µmol/min/mL

## O=S(=O)(F)Cc1ccccc1 [phenylmethylsulfonyl fluoride]
[1]
  effect on activity of epimerase: do not affect

## O=CC(=O)c1ccccc1 [Phenylglyoxal]
[1]; compound at 1.0 mM
  inhibition at 1000 µM: 33%

## [BH4-].[Na+] [sodium borohydride]
[2]; reduction of haloenzyme with sodium borohydride (1 mM), PLP did not restore activity
  catalytic activity after reduction: destroyed catalytic activity

## CC(C)(COP(=O)(O)OP(=O)(O)OC[C@H]1O[C@@H](n2cnc3c(N)ncnc32)[C@H](O)[C@@H]1OP(=O)(O)O)[C@@H](O)C(=O)NCCC(=O)NCCS [CoA, Coenzyme A]
[1]; Table 4, compound at 1 mM
  Activity: 202 µmol/min/mL

## CC(=O)OCC1=C(C(=O)O)N2C(=O)[C@@H](NC(=O)CCC[C@@H](N)C(=O)O)[C@H]2SC1 [Ceph C, cephalosporin C]
[1]; [4]
  Activity: 0%

## NC(=O)C1=CN([C@@H]2O[C@H](COP(=O)(O)OP(=O)(O)OC[C@H]3O[C@@H](n4cnc5c(N)ncnc54)[C@H](O)[C@@H]3O)[C@@H](O)[C@H]2O)C=CC1 [NADH, Reduced Nicotinamide Adenine Dinucleotide]
[1]; Table 4, compound at 1 mM
  Activity: 184 µmol/min/mL

## N[C@H](CCCC(=O)O)C(=O)O [D-Amino adipic acid]
[1]; [4]
  Activity: 0%
